On the set-up of data set [1]: method as in ChemSpider. The note with it: ref ChemSpider; cited from earlier work.
The next data set concerns the target MvitPBP2 (Maruca vitrata, UniProt A0A1D6YJA8). Description: Fluorescence competitive binding assay with 1-NPN probe, recombinant MvitPBP2. As for the experimental part: (§1) Fluorescence binding activity was determined according to the method of Sun et al.[33]. Emission fluorescence spectra were recorded on a Hitachi F-4500 at 25 °C in a right angle configuration, with a 1 cm light path quartz cuvette and 5 nm slits for both excitation and emission. The protein was dissolved in 20 mM Tris-HCl buffer (pH 7.4) and ligands were added as 1 mM methanol solutions. To measure the affinity of the fluorescent ligand 1-NPN to recombinant target proteins, a 2 μM protein solution in 20 mM Tris-HCl (pH 7.4) was titrated with aliquots of […] ligand in methanol to final concentrations of 2–16 μM. After each PBP or ligand was added into the reaction buffer, the mixture solution was incubated for 2 min at room temperature. The probe was excited at 337 nm and emission spectra were recorded between 380 and 450 nm. The affinities of the other ligands were measured in competitive binding assays. A solution of the protein and 1-NPN at a concentration of 2 μM was titrated with 1 mM methanol solutions of each competitor over concentration ranges of 2–24 μM, depending on the ligand (the solubilities are (EPA estimates): E10E12-16:Ald, 0.5 uM; E10-16:Ald, 0.3 uM; E10E12-16:OH, 0.17 uM; and E10-16:OH, 0.97 uM in ChemSpider). The dissociation constant for 1-NPN and the stoichiometry of binding were obtained by processing the data using Prism software. Dissociation constants of the competitors were calculated from the corresponding IC50 values (concentrations of ligands halving the initial fluorescence value of 1-NPN), using the equation: Ki = [IC50]/1 + [1-NPN]/K1-NPN, where [1-NPN] is the free concentration of 1-NPN and K1-NPN is the dissociation constant of the coplex protein/1-NPN.

The next data set deals with MvitPBP1 (Maruca vitrata, UniProt A0A0K0K7G1). Put plainly: Fluorescence competitive binding assay with 1-NPN probe, recombinant MvitPBP1. As to the method:
as §1

In data set [2] the test system is MvitPBP3 (Maruca vitrata). Put plainly: Fluorescence competitive binding assay with 1-NPN probe, recombinant MvitPBP3. As to the method:
as §1, with “A solution of the protein and 1-NPN at a concentration of 2 μM was titrated with 1 mM methanol solutions of each competitor over concentration ranges of 2–24 μM, depending on the ligand (the solubilities are (EPA estimates): E10E12-16:Ald, 0.5 uM; E10-16:Ald, 0.3 uM; E10E12-16:OH, 0.17 uM; and E10-16:OH, 0.97 uM in ChemSpider). The dissociation constant for 1-NPN and the stoichiometry of binding were obtained by processing the data using Prism software.” left out

Another data set relates to MvitGOBP2. Details: method as in PMID 26517714. The note with it: read-out: Ligand concentration at which fluorescence intensity of the MvitGOBP2/1-NPN complex decreased to approximately 50%; cited from earlier work.
[3] abbreviates: MvitPBP2; 2 μM protein and 1-NPN, 20 mM Tris-HCl pH 7.4; read-out: IC50 (ligand concentration displacing 50% of the fluorescence intensity of the MvitPBPs/1-NPN complex).
Where [4] appears, read: MvitPBP2; calculated from IC50; read-out: Ki (dissociation constant).
[5] abbreviates: MvitPBP1, 2 μM protein and 1-NPN, 20 mM Tris-HCl pH 7.4, read-out: IC50 (ligand concentration displacing 50% of the fluorescence intensity of the MvitPBPs/1-NPN complex).
Where [6] appears, read: MvitPBP1, calculated from IC50, read-out: Ki (dissociation constant).

≈ marks a conversion by molar mass, not a printed value. Where two headings read alike, the source gives them in different places.

MvitPBP1, sequence (A0A0K0K7G1 entry or part of it): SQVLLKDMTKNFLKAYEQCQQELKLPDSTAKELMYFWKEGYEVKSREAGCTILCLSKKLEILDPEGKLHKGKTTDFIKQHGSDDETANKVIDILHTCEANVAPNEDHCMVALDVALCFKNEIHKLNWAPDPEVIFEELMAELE
MvitPBP2, sequence (A0A1D6YJA8 entry or part of it): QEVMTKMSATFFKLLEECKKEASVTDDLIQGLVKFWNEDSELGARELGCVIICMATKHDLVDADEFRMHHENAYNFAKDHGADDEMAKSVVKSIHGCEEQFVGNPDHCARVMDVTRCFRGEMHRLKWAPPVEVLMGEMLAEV
MvitPBP3 (Maruca vitrata), sequence (A0A1D6YJA8 entry or part of it): as above

Usually Ki stands for a dissociation constant, usually derived from enzyme kinetics or from competition with a known ligand. On to `CCC/C=C/C=C/CCCCCCCCCO` [E10E12-16: OH, (E,E)-10,12-Hexadecadien-1-ol], for which the “Solubility (EPA estimates)” value in data set [1] is 0.17 µM (≈ 0.0405 µg/mL). In addition, the figures for the IC50 at MvitPBP2 (setting [3]) and on MvitPBP1 (setting [5]) were 5.91 µM and 8.84 µM, respectively. The Ki was 5.11 µM on MvitPBP2 (setting [4]) and 7.73 µM on MvitPBP1 (setting [6]).

Regarding `CCCCC/C=C/CCCCCCCCC=O` [E10-16: Ald, (E)-10-Hexadecenal], the “Solubility (EPA estimates)” value in data set [1] was 0.3 µM (≈ 0.0715 µg/mL). For the same compound, the IC50 was 5.53 µM at MvitPBP2 (setting [3]) and 7.36 µM on MvitPBP1 (setting [5]). For the same compound, the Ki on MvitPBP2 (setting [4]) was 4.78 µM; at MvitPBP1 (setting [6]), 6.44 µM.

For `CCCCC/C=C/CCCCCCCCCO` [E10-16: OH, (E)-10-Hexadecen-1-ol], the “Solubility (EPA estimates)” value in data set [1] was 0.97 µM (≈ 0.233 µg/mL). The IC50 at MvitPBP2 (setting [3]) was 6.82 µM; on MvitPBP1 (setting [5]), 7.64 µM. Further, the Ki at MvitPBP2 (setting [4]) is 5.9 µM; at MvitPBP1 (setting [6]) it was 6.69 µM.

On to `CC(=O)c1ccc(C(C)=O)cc1` [1,4-diacetyl benzene], for which, on MvitPBP1, the IC50 came to 19.6 µM and the Ki amounted to 17.2 µM.

`CC(C=O)Cc1ccccc1` (stereo not shown) [2-methyl-3-phenylpropanal]: the “Ligand binding capacity (in words)” value in data set [2] is on record as “bonded strongly”. The Ki at MvitPBP2 (setting [4]) is 18.1 µM. Also, the IC50 is 21 µM on MvitPBP2 (read-out: IC50 (ligand concentration displacing 50% of the fluorescence intensity of the MvitPBPs/1-NPN complex); MvitPBP2; 2 μM protein and 1-NPN, 20 mM Tris-HCl pH 7.4); 3.81 µM with MvitGOBP2.

In the case of `Oc1cccc2[nH]ccc12` [1H-indol-4-ol], at MvitPBP1 (setting [5]), the IC50 was found to be 22.5 µM. Besides, the Ki at MvitPBP1 (setting [6]) was 19.7 µM.

On to `CCCCCCCCOC(=O)CCC` [Butanoic acid octyl ester], for which, in the data set with MvitGOBP2, the IC50 was 8.5 µM.

`c1ccc(Nc2cccc3ccccc23)cc1` [1-NPN, N-phenyl-1-naphthylamine, reference compound]: the Kd is 11.9 µM at MvitPBP2 (read-out: Dissociation constant of the MvitPBP2/1-NPN complex; calculated by Scatchard plots) and 13 µM at MvitPBP1.

As for `CCC/C=C/C=C/CCCCCCCCC=O` [E10E12-16: Ald, (E,E)-10,12-Hexadecadienal], in data set [1], the “Solubility (EPA estimates)” value is 0.5 µM (≈ 0.118 µg/mL). Moreover, the IC50 on MvitPBP2 (setting [3]) came to 5.89 µM; on MvitPBP1 (setting [5]), 5.68 µM. In addition, the Ki on MvitPBP2 (setting [4]) is 5.09 µM; on MvitPBP1 (setting [6]), 4.97 µM.

Source of the values: PMC5048296, “Sex pheromone recognition and characterization of three pheromone-binding proteins in the legume pod borer, Maruca vitrata Fabricius (Lepidoptera: Crambidae)” (Scientific Reports, 2016).
